Results from patent US20200239530A1, “COMPOUNDS AND METHODS OF MODULATING PROTEIN DEGRADATION” (Vividion Therapeutics, Inc., priority 2017, published 2020).
Where two headings read alike, the source gives them in different places. Values belong to the compound of their own block, whether it stands above or below them.

Key:
Experiment in all cases: Competitive cysteine profiling, probe competition (Table 2B)
Assay type in all cases: binding
[1] = target: T1, Q9C0C7 (Homo sapiens, UniProt Q9C0C7)
T1 construct: Cells were resuspended in cold PBS on ice and sonicated with a probe sonicator to achieve lysis; endogenous in cells
T1 sequence (Q9C0C7 1-1298): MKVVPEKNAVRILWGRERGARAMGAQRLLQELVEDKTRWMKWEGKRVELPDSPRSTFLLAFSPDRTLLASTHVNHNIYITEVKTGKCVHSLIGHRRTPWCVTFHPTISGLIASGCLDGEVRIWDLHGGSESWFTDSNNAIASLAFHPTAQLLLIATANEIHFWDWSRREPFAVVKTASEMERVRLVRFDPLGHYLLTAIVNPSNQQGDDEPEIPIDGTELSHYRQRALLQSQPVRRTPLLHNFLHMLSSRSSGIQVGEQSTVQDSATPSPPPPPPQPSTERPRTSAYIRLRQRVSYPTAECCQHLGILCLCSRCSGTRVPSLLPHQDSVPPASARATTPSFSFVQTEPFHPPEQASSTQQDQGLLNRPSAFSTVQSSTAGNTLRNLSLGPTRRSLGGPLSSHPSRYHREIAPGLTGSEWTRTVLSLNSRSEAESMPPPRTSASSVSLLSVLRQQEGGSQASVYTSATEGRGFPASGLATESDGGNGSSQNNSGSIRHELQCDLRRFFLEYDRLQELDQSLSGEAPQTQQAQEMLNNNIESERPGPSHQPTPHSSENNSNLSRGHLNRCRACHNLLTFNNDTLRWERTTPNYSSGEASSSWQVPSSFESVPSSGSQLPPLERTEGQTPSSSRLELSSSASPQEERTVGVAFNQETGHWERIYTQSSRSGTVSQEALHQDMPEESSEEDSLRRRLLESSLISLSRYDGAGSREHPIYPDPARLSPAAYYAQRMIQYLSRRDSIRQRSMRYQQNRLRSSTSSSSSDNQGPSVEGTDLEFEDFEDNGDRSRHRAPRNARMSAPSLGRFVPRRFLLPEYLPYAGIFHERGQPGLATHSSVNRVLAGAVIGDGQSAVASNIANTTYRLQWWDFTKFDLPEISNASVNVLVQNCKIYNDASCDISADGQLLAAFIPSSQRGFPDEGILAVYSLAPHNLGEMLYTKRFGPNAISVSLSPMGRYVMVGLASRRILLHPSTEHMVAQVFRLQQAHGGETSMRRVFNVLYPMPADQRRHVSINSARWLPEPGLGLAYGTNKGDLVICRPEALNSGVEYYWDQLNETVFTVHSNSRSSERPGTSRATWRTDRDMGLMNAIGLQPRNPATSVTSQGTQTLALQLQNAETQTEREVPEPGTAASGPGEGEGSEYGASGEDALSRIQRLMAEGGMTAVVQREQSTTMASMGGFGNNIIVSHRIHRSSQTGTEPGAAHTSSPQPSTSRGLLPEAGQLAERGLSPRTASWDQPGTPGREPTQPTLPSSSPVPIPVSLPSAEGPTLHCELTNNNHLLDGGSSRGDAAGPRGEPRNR
Excerpt: (§1) The following 96-well sample prep protocol was used for sample preparation.

[2] = target: T2, Q7Z569 (Homo sapiens, UniProt Q7Z569)
T2 construct: 200 μL of lysate containing 5 mg/ml proteome was treated with 2 μL of 100× compound stock; endogenous in cells
T2 sequence (Q7Z569 whole entry): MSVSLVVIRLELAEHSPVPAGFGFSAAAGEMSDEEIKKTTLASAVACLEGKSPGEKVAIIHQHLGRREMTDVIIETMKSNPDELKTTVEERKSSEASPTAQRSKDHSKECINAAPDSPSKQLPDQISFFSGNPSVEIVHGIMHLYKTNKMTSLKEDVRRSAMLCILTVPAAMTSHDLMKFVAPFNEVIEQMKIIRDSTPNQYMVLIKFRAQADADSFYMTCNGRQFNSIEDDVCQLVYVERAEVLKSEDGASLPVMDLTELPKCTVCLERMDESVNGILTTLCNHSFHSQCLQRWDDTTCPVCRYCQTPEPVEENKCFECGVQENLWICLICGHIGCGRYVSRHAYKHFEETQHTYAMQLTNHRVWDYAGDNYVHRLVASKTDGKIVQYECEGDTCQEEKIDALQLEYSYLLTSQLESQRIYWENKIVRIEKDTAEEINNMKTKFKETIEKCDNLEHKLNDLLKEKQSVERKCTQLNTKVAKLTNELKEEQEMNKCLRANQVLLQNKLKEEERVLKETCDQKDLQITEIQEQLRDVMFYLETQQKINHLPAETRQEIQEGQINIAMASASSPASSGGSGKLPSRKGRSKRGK
Excerpt: as §1

[3] = target: T3, Q9P203 (Homo sapiens, UniProt Q9P203)
T3 construct: 200 μL of lysate containing 5 mg/ml proteome was treated with 2 μL of 100× compound stock; endogenous in cells
T3 sequence (Q9P203 1-1132): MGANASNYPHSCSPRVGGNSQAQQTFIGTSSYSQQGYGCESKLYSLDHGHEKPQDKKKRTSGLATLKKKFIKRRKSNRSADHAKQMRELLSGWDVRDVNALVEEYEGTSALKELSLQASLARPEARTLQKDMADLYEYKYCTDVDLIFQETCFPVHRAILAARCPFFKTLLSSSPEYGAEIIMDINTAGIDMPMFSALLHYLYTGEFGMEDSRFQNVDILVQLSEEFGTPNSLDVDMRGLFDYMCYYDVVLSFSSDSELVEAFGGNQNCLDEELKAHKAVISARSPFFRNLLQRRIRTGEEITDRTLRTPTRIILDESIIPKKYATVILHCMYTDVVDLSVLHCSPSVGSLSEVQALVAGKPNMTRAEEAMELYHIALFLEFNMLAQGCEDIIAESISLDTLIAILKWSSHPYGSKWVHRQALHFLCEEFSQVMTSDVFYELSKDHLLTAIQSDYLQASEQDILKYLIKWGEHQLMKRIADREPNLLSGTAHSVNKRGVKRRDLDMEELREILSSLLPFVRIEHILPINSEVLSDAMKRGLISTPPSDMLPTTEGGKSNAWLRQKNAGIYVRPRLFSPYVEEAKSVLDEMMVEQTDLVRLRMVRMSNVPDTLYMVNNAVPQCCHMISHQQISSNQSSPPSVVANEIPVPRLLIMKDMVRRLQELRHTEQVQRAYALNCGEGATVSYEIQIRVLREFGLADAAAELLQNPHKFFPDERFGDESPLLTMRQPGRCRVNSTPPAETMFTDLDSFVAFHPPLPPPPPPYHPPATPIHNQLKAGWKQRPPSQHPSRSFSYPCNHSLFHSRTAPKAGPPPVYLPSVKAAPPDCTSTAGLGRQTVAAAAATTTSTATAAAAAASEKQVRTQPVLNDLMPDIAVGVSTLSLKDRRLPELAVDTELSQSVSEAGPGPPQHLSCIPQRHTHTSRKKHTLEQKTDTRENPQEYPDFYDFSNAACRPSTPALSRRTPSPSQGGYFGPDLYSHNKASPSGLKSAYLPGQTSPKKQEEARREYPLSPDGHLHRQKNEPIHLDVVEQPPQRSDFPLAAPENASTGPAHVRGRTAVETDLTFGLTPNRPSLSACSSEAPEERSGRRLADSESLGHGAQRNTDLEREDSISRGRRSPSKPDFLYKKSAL
Excerpt: as §1

[4] = read-out: KB05_100 uM_percent_inhibition

KB05_100 uM_percent_inhibition ([1]; 100 uM): 25% | inhibition at 100 µM [1, 4]: 23% | inhibition at 100 µM [2, 4]: 33%
Compound: C=CC(=O)N(c1ccccc1)c1ccc(Br)cc1 [KB05]

Compound: COc1ccc2c(c1)CCCN2C(=O)CCl [KB02]
KB02_100 uM_percent_inhibition ([1]; 100 uM): 49% | inhibition at 100 µM ([1]; read-out: KB02_100 uM_percent_inhibition): 48% | KB02_500 uM_percent_inhibition ([3]; 500 uM): 17% | inhibition at 500 µM ([3]; read-out: KB02_500 uM_percent_inhibition): 12%

Compound: O=C(CCl)Nc1cc(C(F)(F)F)cc(C(F)(F)F)c1 [KBO3]
KB03_100 uM_percent_inhibition ([2]; 100 uM): 10% | KB03_500 uM_percent_inhibition ([3]; 500 uM): 13%
